This note sets out measurements from paper PMC4310094, “FXR antagonism of NSAIDs contributes to drug-induced liver injury identified by systems pharmacology approach” (Scientific Reports, 2015).

Data set [1] deals with T1, Farnesoid X Receptor (FXR) (Homo sapiens, UniProt Q96RI1).
T1 construct: Human FXRα-LBD (amino acids 200–473); expressed in transfected cells; host or cells: yeast strain AH109
T1 sequence (Q96RI1 214-486): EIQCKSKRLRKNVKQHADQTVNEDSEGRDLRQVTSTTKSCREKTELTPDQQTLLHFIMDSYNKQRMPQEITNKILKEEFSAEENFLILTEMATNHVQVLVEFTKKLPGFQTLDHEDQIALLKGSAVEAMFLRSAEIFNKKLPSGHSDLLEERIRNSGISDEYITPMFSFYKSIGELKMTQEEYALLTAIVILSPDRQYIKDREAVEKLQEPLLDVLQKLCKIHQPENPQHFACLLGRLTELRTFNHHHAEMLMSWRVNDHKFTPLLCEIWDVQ
The data set is described as follows: Yeast two-hybrid assay, hFXR agonist testing (FXR-LBD/SRC1 interaction, α-galactosidase). It is filed as cell-based. The conditions noted are these: DMSO = 1. The source says: (§1) Yeast two-hybrid system is a powerful tool for identifying potential agonist or antagonist of nuclear receptor based on the protein-protein interaction between nuclear receptor and its transcriptional co-activator[34]. Based on the predicted results through our systems pharmacology approach, the yeast two-hybrid system was set up according to a previous study[35] to test whether NSAIDs can modulate the activation of FXR. A series of NSAIDs with diverse chemical structures were collected and experimentally evaluated for their effects on the interaction between FXR and its co-activator SRC1. […] The previous studies reported an immune-mediated mechanism that is related to liver toxicity induced by oxicams and coxibs.
(§2) The yeast expression plasmids pGADT7 and pGBKT7 were from Clontech (Palo Alto, CA). Human FXRα-LBD (amino acids 200–473) was subcloned into vector pGBKT-7 using NdeI and BamHI restrict enzyme sites. The primers used for PCR amplification were listed as follows: FXRα-LBD (sense) 5′-[…]-3′, (anti-sense) 5′-[…]-3′. The combination plasmid pGADT7-SRC1 was prepared as described previously. The luciferase reporter plasmid pGL3-FXRE-Luc was generously donated by Dr. Majlis Hermansson (AstraZeneca R&D Mölndal, Sweden).
(§3) A yeast two-hybrid system for FXRα was constructed by yeast co-transformation with pGBKT7-FXR LBD and pGADT7-SRC1 according to manufacturer's protocols. […] 24 h later, we harvested the yeast cells and analyzed α-galactosidase activity using p-nitrophenyl α-D-galactopyranoside as the substrate.

For data set [2], the target named is T1, Farnesoid X Receptor (FXR). Briefly: Yeast two-hybrid assay, FXR antagonist testing (compounds plus 10 μM CDCA). It is filed as cell-based. As to conditions: for IC50: hFXR-LBD/SRC1, determined if inhibition at 10 μM > 50%.
From the text: as §1, §2, §3

Another data set concerns caspase9. Briefly: Western blot of caspase9 in HepG2 cells. The conditions noted are these: Figure 6B. It is filed as cell-based. On the procedure:
(§4) In subsequent experiments, we further investigated whether NSAIDs could induce STAT3 activation and suppress the expression of caspase9. […] The phosphorylated STAT3 was determined by western blot analysis. […] For STAT3 phosphorylation and caspase9 expression analysis, HepG2 cells were seeded in 6-well plates and then treated with varied compounds in serum-free DMEM media. After 24 h incubation, cells were washed twice with ice-cold phosphate buffered saline (PBS) and lysed in RIPA buffer including 5 mM NaF, 1 mM PMSF, 2 mM NaVO4 and protease inhibitor cocktail. Lysates were then centrifuged at 10,000 rpm for 10 min at 4°and the protein concentrations were determined by BCA assay. Whole cell extracts was resolved on 10% SDS-PAGE and transferred to polyvinylidene fluoride (PVDF) membrane. The membrane was blotted with antibodies against p-STAT3, total-STAT3, caspase9 and GAPDH, and then examined by ECL detection system according to the manufacturer's instructions (Amersham Pharmacia Biotech).
Background: Immunoblotting shows a protein as a band on a membrane.

Another data set relates to STAT3. The data set is described as follows: Western blot of STAT3 phosphorylation in HepG2 cells. It is filed as cell-based. The conditions noted are these: Figure 6A. On the procedure:
as §4

For another data set, the system named is SHP. The data set is described as follows: qRT-PCR of FXR target gene SHP in HepG2 cells. On the technique in general: Real-time PCR tracks product formation cycle by cycle.

Experimental for SHP: The mRNA levels of the FXR target genes were quantified by qRT-PCR.
The data were carried out in at least three independent experiments.
HepG2 cells were cultured at 37°C in DMEM media supplemented with 10% FBS. And then cells were seeded into 6-well plates and grew to 80–90% confluence. After incubation with the test compounds for 24 h, cells were harvested and total RNA was isolated using Trizol reagent. The first single-strand cDNA was synthesized using reverse transcriptase kit. The qRT-PCR was performed using Bio-Rad CFX96^TM real time PCR system according to the manufacturer's instruction with specific primers for the FXR target gene SHP (forward 5′-[sequence]-3′, reverse 5′-[sequence]-3′), CYP7A1 (forward 5′- [sequence]-3′, reverse 5′- [sequence]-3′) for detection of the transcripts. Transcription levels were normalized to GAPDH mRNA levels (forward 5′- [sequence]-3′, reverse 5′- [sequence]-3′). The relative RNA quantities were calculated using the comparative threshold cycles (Ct) method. The Ct for the SHP, CYP7A1 and GAPDH signals were determined in triplicate experiments.

The inhibition is the change of the read-out against control, counted positive when it falls. For orientation: IC50 means the concentration that gives 50% inhibition. For `CCCCC1C(=O)N(c2ccccc2)N(c2ccccc2)C1=O` [Phenylbutazone], the “FXR activation (10 μM)” value in data set [1] amounted to 0.99. Besides, in data set [2], the inhibition at 10 µM was found to be 91.9%. For the same compound, in data set [2] (yeast two hybrid), the “FXR antagonist potency compared with guggulsterones (GS)” value is listed as “more potent FXR antagonist than guggulsterones” and the half-maximal inhibitory concentration (IC50) worked out at 0.7 µM.

For the compound `C[C@H](CCC(=O)O)[C@H]1CC[C@H]2[C@@H]3[C@H](O)C[C@@H]4C[C@H](O)CC[C@]4(C)[C@H]3CC[C@]12C` [CDCA, chenodeoxycholic acid], the “caspase9 levels on co-treatment with indomethacin” value with caspase9 (co-treated with indomethacin and CDCA) is on record as “substantially attenuated back to the normal level”. Besides, in the data set on STAT3 (CDCA pretreatment), the “effect on indomethacin-induced STAT3 activation” value was “suppresses indomethacin-induced STAT3 activation”.

With `CN1C(C(=O)Nc2ccccn2)=C(O)c2ccccc2S1(=O)=O` [Piroxicam], in data set [1], the “FXR activation (10 μM)” value was determined as 1.13. The inhibition at 10 µM in data set [2] came to 30.7%. The 50% inhibitory concentration (IC50) in data set [2] (yeast two hybrid) is > 25 µM.

As for `CS(=O)(=O)c1ccc(C2=C(c3ccccc3)C(=O)OC2)cc1` [Rofecoxib], the “FXR activation (10 μM)” value in data set [1] is given as 1.18. In addition, in data set [2], the inhibition at 10 µM was found to be 39.9%. The half-inhibitory concentration (IC50) in data set [2] (yeast two hybrid) was > 25 µM.

Regarding `COc1ccc2c(c1)c(CC(=O)O)c(C)n2C(=O)c1ccc(Cl)cc1` [Indomethacin], the caspase9 expression result with caspase9 (western blot) is listed as “significantly stimulates caspase9 expression in a dose-dependent manner”. For the same compound, in the data set with SHP, the “biological activity on genes SHP and CYP7A1 compared with ibuprofen” value is on record as “higher biological activity than ibuprofen”. For the same compound, the STAT3 phosphorylation level entry in the data set on STAT3 (western blot) was “significantly increases the STAT3 phosphorylation level”.

In the case of `O=C(O)c1cc(-c2ccc(F)cc2F)ccc1O` [Diflunisal], the “FXR activation (10 μM)” value in data set [1] was 1.31. In data set [2], the inhibition at 10 µM worked out at 93.3%. Further, the IC50 in data set [2] (yeast two hybrid) was 8.48 µM.
